From patent US12686673B2 (Blueprint Medicines Corporation, priority 2020, dated 2026)
Counter-ions that a name gives are not always drawn. Like-named read-outs stand apart in the source and are kept apart here.

Columns and labels:
Format in all cases: cell-based
[1] = biological target: EGFR(D770_N771insSVD) expressing Ba/F3 stable cell line (Homo sapiens, UniProt P00533, DUP768-770, cells depend on it); test: Cellular proliferation (Alamar Blue) assay, EGFR D770_N771insSVD Ba/F3; details: 72 hr, read-out: D770 IC50
Description: (§1) • 1. EGFR(D770_N771insSVD) expressing Ba/F3 stable cell line • 2. EGFR (A767_dupASV) expressing Ba/F3 stable cell line • 3. A431 cells • 4. EGFR (H773insNPH) expressing Ba/F3 stable cell line • 5. HER2 (A775_G776insYVMA) expressing Ba/F3 stable cell line Assay Procedure: • 1. Seed cells at 5000 for A431 and 15,000 cells for Ba/F3 in 100 μL/well in complete media (for A431: DMEM with […] and for Ba/F3 cells: RPMI with 10% FBS) in 96-well tissue culture plate. Leave outer wells without cells for background measurements. Incubate at 37 degree Celsius in […] humidified incubator for 16-18 hours. • 2. Add 0.025 ml of 5× concentration compound dilution or DMSO control. Final compound concentration range is 10-0.0005 μM prepared in 3-fold serial dilutions. Incubate for 72 hr at 37 degree Celsius in […] humidified incubator. • 3. Add 0.0125 ml Alamar Blue™ reagent to each well with multi-channel pipette and tap gently on each side of the plate to mix. Incubate for 3 hours at 37 degree Celsius in 5% CO2 humidified incubator. • 4. […] Data analysis was performed using XLfit 5.5.0.5.

[2] = biological target: EGFR (A767_dupASV) expressing Ba/F3 stable cell line (Homo sapiens, UniProt P00533, DUP767-769, cells depend on it); test: Cellular proliferation (Alamar Blue) assay, EGFR A767_dupASV Ba/F3; details: 72 hr, read-out: A767 IC50
Description: as §1

[3] = test system: A431 cells; test: Cellular proliferation (Alamar Blue) assay, A431
Description: as §1

[4] = Homo sapiens, A-431; A431 cells, Alamar Blue, 72 hr; read-out: A431 IC50
[5] = Homo sapiens, A-431; A431 cells, 72 hr, Alamar Blue; read-out: A431 IC50

Chain of EGFR(D770_N771insSVD) expressing Ba/F3 stable cell line (P00533 with tags, fused parts or gaps DUP768-770): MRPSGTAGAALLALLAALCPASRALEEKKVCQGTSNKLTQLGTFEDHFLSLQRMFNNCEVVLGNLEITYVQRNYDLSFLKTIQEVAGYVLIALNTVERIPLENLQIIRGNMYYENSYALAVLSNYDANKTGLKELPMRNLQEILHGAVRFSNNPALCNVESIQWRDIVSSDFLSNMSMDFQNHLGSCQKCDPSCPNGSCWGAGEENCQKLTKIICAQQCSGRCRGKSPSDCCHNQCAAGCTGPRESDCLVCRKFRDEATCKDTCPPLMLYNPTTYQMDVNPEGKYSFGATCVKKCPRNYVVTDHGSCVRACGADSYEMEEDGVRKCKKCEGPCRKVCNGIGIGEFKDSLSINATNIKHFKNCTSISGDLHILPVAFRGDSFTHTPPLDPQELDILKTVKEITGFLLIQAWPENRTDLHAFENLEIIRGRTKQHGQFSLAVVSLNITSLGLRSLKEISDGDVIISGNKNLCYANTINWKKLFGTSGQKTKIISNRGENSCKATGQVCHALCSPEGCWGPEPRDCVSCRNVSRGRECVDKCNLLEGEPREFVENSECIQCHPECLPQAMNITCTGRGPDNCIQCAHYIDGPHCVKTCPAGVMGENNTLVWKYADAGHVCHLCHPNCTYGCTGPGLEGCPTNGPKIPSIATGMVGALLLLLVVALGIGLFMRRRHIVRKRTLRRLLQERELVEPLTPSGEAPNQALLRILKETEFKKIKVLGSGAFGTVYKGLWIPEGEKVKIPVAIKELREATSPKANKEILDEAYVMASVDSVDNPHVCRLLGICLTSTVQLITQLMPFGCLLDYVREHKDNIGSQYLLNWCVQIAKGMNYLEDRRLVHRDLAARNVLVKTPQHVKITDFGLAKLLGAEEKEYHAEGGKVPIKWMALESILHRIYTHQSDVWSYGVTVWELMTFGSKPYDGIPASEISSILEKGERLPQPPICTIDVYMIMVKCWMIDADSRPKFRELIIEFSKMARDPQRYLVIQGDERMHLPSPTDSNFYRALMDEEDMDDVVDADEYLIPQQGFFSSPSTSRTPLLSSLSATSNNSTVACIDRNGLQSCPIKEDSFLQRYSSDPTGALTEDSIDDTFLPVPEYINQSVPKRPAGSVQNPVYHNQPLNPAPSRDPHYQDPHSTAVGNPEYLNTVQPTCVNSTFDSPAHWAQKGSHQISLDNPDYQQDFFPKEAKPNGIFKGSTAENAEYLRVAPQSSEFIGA
Chain of EGFR (A767_dupASV) expressing Ba/F3 stable cell line (P00533 with tags, fused parts or gaps DUP767-769): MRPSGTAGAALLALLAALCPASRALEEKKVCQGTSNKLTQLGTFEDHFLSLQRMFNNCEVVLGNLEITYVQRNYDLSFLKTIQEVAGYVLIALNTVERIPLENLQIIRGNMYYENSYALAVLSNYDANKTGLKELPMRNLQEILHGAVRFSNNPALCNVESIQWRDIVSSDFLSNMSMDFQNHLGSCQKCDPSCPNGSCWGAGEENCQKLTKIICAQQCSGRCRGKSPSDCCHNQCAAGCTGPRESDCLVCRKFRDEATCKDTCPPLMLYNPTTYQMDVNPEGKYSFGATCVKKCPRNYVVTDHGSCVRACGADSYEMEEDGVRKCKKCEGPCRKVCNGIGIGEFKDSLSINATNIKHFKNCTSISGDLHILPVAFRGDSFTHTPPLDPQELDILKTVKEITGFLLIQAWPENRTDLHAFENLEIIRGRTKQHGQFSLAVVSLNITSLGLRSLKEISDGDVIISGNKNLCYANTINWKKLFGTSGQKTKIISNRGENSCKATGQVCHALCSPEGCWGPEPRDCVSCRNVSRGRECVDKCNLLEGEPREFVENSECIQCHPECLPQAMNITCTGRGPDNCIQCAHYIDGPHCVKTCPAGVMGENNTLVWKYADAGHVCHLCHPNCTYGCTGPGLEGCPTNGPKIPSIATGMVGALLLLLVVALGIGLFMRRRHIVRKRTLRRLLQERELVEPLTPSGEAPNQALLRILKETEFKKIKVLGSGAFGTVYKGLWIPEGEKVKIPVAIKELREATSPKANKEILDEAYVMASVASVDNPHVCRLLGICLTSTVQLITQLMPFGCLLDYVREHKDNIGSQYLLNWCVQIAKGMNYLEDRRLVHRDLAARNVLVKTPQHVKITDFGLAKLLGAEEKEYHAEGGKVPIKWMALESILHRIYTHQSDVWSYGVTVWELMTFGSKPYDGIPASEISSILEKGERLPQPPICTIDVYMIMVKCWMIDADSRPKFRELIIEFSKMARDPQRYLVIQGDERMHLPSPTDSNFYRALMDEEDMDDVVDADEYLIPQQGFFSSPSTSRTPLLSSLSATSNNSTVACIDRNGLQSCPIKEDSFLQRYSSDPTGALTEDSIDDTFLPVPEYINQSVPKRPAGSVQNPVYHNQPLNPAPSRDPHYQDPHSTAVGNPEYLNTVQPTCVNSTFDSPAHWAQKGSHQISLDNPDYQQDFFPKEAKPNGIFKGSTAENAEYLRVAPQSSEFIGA

C=CC(=O)Nc1ccc(F)c(Nc2nc(Nc3cnn(C)c3)ncc2C2CC2)c1 [Compound 120, N-(3-((5-cyclopropyl-2-((1-methyl-1H-pyrazol-4-yl)amino)pyrimidin-4-yl)amino)-4-fluorophenyl)acrylamide trifluoroacetate]
GI50 [1]: 967 nM
GI50 [2]: 875 nM
IC50 [3, 4]: 3800 nM

C=CC(=O)Nc1cccc(Oc2cc(Nc3cnn(C)c3)ncc2-c2ccc(C(F)(F)F)cc2)c1 [Compound 182, N-[3-({2-[(1-methyl-1H-pyrazol-4-yl)amino]-5-[4-(trifluoromethyl)phenyl]pyridin-4-yl}oxy)phenyl]prop-2-enamide; trifluoroacetic acid]
GI50 [1]: 9980 nM
GI50 [2]: 7470 nM
IC50 [3, 4]: 6110 nM

C=CC(=O)Nc1ccc(F)c(Nc2nc(NC3CCN(C)CC3)ncc2-c2ccc(C(F)(F)F)cc2)c1 [Compound 42, N-(4-fluoro-3-((2-((1-methylpiperidin-4-yl)amino)-5-(4-(trifluoromethyl)phenyl)pyrimidin-4-yl)amino)phenyl)acrylamide trifluoroacetate]
GI50 [1]: > 10000 nM
GI50 [2]: > 10000 nM
IC50 [3, 4]: 8990 nM

C=CC(=O)Nc1ccc(F)c(Nc2nc(Nc3cccnc3)ncc2-c2ccc(C(F)(F)F)cc2)c1 [Compound 232, N-(4-fluoro-3-((2-(pyridin-3-ylamino)-5-(4-(trifluoromethyl)phenyl)pyrimidin-4-yl)amino)phenyl)acrylamide]
GI50 [1]: 724 nM
GI50 [2]: 1130 nM
IC50 [3, 5]: 539 nM

C=CC(=O)Nc1cccc(Oc2nc(Nc3ccccc3Cl)ncc2-c2ccc(C(F)(F)F)cc2)c1 [Compound 189, N-(3-((2-((2-chlorophenyl)amino)-5-(4-(trifluoromethyl)phenyl)pyrimidin-4-yl)oxy)phenyl)acrylamide]
GI50 [1]: > 10000 nM
GI50 [2]: > 10000 nM
IC50 [3, 4]: 8130 nM

C=CC(=O)Nc1cccc(Nc2nc(Nc3cnn(C)c3)ncc2-c2ccc(C(F)(F)F)cc2)n1 [Compound 197, N-(6-((2-((1-methyl-1H-pyrazol-4-yl)amino)-5-(4-(trifluoromethyl)phenyl)pyrimidin-4-yl)amino)pyridin-2-yl)acrylamide]
GI50 [1]: 395 nM
GI50 [2]: 448 nM
IC50 [3, 4]: 373 nM

C=CC(=O)Nc1ccc(F)c(Nc2nc(N(C)c3cnn(C)c3)ncc2-c2cc(F)cc(OC)c2)c1 [Compound 305, N-(4-fluoro-3-((5-(3-fluoro-5-methoxyphenyl)-2-(methyl(1-methyl-1H-pyrazol-4-yl)amino)pyrimidin-4-yl)amino)phenyl)acrylamide]
GI50 [1]: > 10000 nM
GI50 [2]: > 10000 nM
IC50 [3, 5]: > 10000 nM

C=CC(=O)Nc1ccc(F)c(Nc2nc(Nc3cnn(C)c3)ncc2-c2cn[nH]c2)c1 [Compound 98, N-(4-fluoro-3-((2-((1-methyl-1H-pyrazol-4-yl)amino)-5-(1H-pyrazol-4-yl)pyrimidin-4-yl)amino)phenyl)acrylamide]
GI50 [1]: 671 nM
GI50 [2]: 942 nM
IC50 [3, 4]: > 10000 nM

C=CC(=O)Nc1ccc(F)c(Nc2nc(Nc3cnn(C)c3)ncc2-c2cccc(N(C)C)c2)c1 [Compound 145, N-(3-((5-(3-(dimethylamino)phenyl)-2-((1-methyl-1H-pyrazol-4-yl)amino)pyrimidin-4-yl)amino)-4-fluorophenyl)acrylamide]
GI50 [1]: 911 nM
GI50 [2]: 2020 nM
IC50 [3, 4]: 3980 nM

C=CC(=O)Nc1cccc(Oc2nc(NCCN(C)C)ncc2-c2ccc(C(F)(F)F)cc2)c1 [Compound 236, N-(3-((2-((2-(dimethylamino)ethyl)amino)-5-(4-(trifluoromethyl)phenyl)pyrimidin-4-yl)oxy)phenyl)acrylamide]
GI50 [1]: > 10000 nM
GI50 [2]: > 10000 nM
IC50 [3, 5]: > 10000 nM

C=CC(=O)Nc1ccc(F)c(Nc2nc(Nc3ccn(C)n3)ncc2-c2ccc(C(F)(F)F)cc2)c1 [Compound 113, N-(4-fluoro-3-((2-((1-methyl-1H-pyrazol-3-yl)amino)-5-(4-(trifluoromethyl)phenyl)pyrimidin-4-yl)amino)phenyl)acrylamide trifluoroacetate]
GI50 [1]: 317 nM
GI50 [2]: 263 nM
IC50 [3, 4]: 201 nM
